Drawing on the METLIN SMRT retention time set (Domingo-Almenara et al. 2019), this text covers RP-LC retention time for 79 molecules.

This series can be described thus: gradient 5% acetonitrile 3 min, to 50% in 2 min, to 85% in 15 min, held 3 min, 100 µL/min. Conditions: column: Zorbax Extend-C18 2.1 x 50 mm; eluents: water / acetonitrile, 0.1% formic acid. Put shortly:
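The system's dead and dwell volumes were 40 μL and 900 μL, with a Zorbax Extend-C18 column (2.1 × 50 mm, 1.8 μm) run at 100 μL/min in water and acetonitrile containing 0.1% formic acid each. Pure standards were analyzed in mixtures of ~100 molecules by HPLC–quadrupole time-of-flight mass spectrometry in positive and negative ionization mode. Retention time was assigned from computationally picked, manually inspected adduct peaks.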
Molecule `CCc1cccc(NC(=O)Cn2c(=O)c(CCC(=O)NCC(C)C)nc3ccccc32)c1` returned an RP-LC retention time of 880 s.

As to `CCOc1ccc2nc(C(=O)NCc3ccc(C(F)(F)F)cc3)cn2n1`, the RP-LC retention time is 947 s. In turn, `c1ccc(-c2nc(CSc3ccc(-n4ccnc4)nn3)cs2)cc1` showed an RP-LC retention time of 636 s. On to `O=C(c1ccc2ncnc(N3CCCC3)c2c1)N1CCN(c2ccccc2F)CC1`, for which the RP-LC retention time stood at 659 s. The same measure for `O=C(Nc1ccc2c(c1)OCO2)N1CCC(N2CCN(Cc3ccccc3)C(=O)C2=O)CC1`: 706 s; for `Cc1cccc(-c2nnc(CC(=O)NC3CCCC3)o2)c1`: 658 s.

Molecule `O=C(C1=NN(c2ccc(F)cc2)c2ccc(F)cc2S1(=O)=O)N1CCOCC1` yielded an RP-LC retention time of 829 s.

With `CCOc1ncccc1C(=O)Nc1c(C)nc2sc(C)c(C)n2c1=O`, the RP-LC retention time amounted to 723 s. Regarding `O=C(NCCc1cccs1)C1CCN(C(=O)c2ncn3c2COC(c2ccccc2)C3)CC1` (centres undefined), the RP-LC retention time was determined as 738 s. As to `CCN(CC)CCOCCOC(=O)C1(c2ccccc2)CCCC1`, the RP-LC retention time amounted to 810 s. To `CC(C)c1nccn1C1CN(C(=O)c2ccc3[nH]ccc3c2)C1` belongs 580 s; to `CCN1CCN(CC(=O)NCc2ccccc2)C(=O)C1=O`, 570 s; to `COCCN1C(=O)c2ccc(-c3ccco3)n2CC1(C)C(=O)NCc1ccccc1` (centres undefined), 814 s. Take `Cc1ccc(-c2nccn3cc(C(=O)N4CCN(C(C)C)CC4)nc23)cc1`: the RP-LC retention time worked out at 620 s. The molecule `O=C(COc1ccccc1F)Nc1cc(C(F)(F)F)ccc1Cl` came in with an RP-LC retention time of 1150 s. To `O=C(Cc1csc2nc(-c3ccccc3)cn12)Nc1ccc(Cl)cc1F` belongs 881 s; to `Cc1ccccc1-c1ccc(N2CCCC(C(=O)NC(C)CCc3ccccc3)C2)nn1` (centres undefined), 817 s. `COCCNC(=O)NC1CCN(c2nc3cccnc3n(Cc3ccc(C)cc3)c2=O)CC1`: the RP-LC retention time worked out at 882 s. The same measure for `C[C@]12CCC3[C@@H](CC[C@@H]4C[C@H](O)CC[C@]34C)[C@@H]1CCC2=O` (some centres undefined): 992 s; for `Cc1cc(-c2nnc(-c3ccccc3)o2)c(C)n1CC(=O)NCc1ccc(Cl)cc1`: 982 s.

`COc1ccc(CNC(=O)Cn2c(N3CCOCC3)nc(C)cc2=O)cc1` had an RP-LC retention time of 629 s. As for `COc1cccc(-c2noc(Cc3nnc(-c4ccc(F)cc4)o3)n2)c1OC`, the RP-LC retention time amounted to 943 s.

With `CCn1cc(-c2nc(C(=O)Nc3ccc(F)cc3C)cs2)c2cccnc21`, the RP-LC retention time was 1000 s.

Consider `CCN1C(=O)C(CC(=O)NCC2CCCCC2)Sc2ncccc21` (centres undefined), for which the RP-LC retention time was found to be 808 s. In turn, `COc1cccc(CNC(=O)C2CCCN2S(=O)(=O)c2ccc3c(c2)C(C)(C)C(=O)N3C)c1` (centres undefined) returned an RP-LC retention time of 821 s.

Molecule `CCN1CCC(N(Cc2cccs2)C(=O)Nc2cccc(Br)c2)CC1` gave an RP-LC retention time of 693 s. For `O=C(Cn1cccc1-c1nnc(C2CC2)o1)Nc1ccc(Cl)cc1F`, the RP-LC retention time stood at 908 s. In turn, `CCc1ccc(CNC(=O)c2ccc3c(c2)N(C)C(=O)C2CCCCN32)cc1` (centres undefined) registered an RP-LC retention time of 663 s. Turning to `CCCNC(=O)CSc1ncccc1C(=O)O`, the RP-LC retention time amounted to 599 s.

For `COc1ccc(-c2nc(C3CC(=O)N(c4ccc(C)cc4)C3)no2)c(OC)n1` (centres undefined), the RP-LC retention time was determined as 1040 s.

`O=C(NCc1ccccc1)c1cc(N2CCCC2)n2nccc2n1` came in with an RP-LC retention time of 951 s. As to `CC(C)S(=O)(=O)c1ccc(Cc2nnc(NC(=O)c3ccc4ncsc4c3)o2)cc1`, the RP-LC retention time was determined as 641 s. On to `O=S(=O)(c1ccccc1)N1CC(c2nc(-c3ccncc3)no2)C1`, for which the RP-LC retention time is 688 s. The same measure for `O=C(NCc1ccco1)C1CCN(c2nc3ccc(-c4cncnc4)nc3s2)CC1`: 743 s; for `CSc1ccc(CNC(=O)c2cc3n(n2)CCCN(Cc2ccccc2)C3=O)cc1`: 895 s; for `Cc1cc(C)n(CC(=O)N2CCN(c3ccccc3)CC2)c1-c1nc(C2CC2)no1`: 932 s. For `Cc1cc(C)c(NC(=O)Cn2nc3c(N(C)C4CCCCC4)nccn3c2=O)c(C)c1`, the RP-LC retention time worked out at 797 s. For the molecule `COc1ccc2[nH]cc(CCNC(=O)c3ccc(SC)cc3OC)c2c1`, the RP-LC retention time came out at 865 s.

`CC1CCCN(S(=O)(=O)c2ccc(-n3cnc(C(=O)N4CCCCCC4)c3)nc2)C1` (centres undefined) displayed an RP-LC retention time of 920 s. Take `CCCCn1c(CN2CCCC2)nc2cc(NC(=O)c3ccco3)ccc21`: the RP-LC retention time was 626 s. In the case of `COc1cccc(CNc2ncccc2-c2nnc(-c3ccccc3)o2)c1`, the RP-LC retention time is 1170 s. Regarding `COc1ccc(-c2nc3cc(C)ccn3c2NC(=O)c2cc(OC)c(OC)c(OC)c2)cc1`, the RP-LC retention time is 664 s. Turning to `Cc1cc(N2CCOCC2)nc(N2CCN(C(=O)c3ccc(C)c(C)c3)CC2)n1`, the RP-LC retention time stood at 646 s.

`COC(=O)N1CCc2ccccc2C1C(=O)NCc1ccco1` (centres undefined) displayed an RP-LC retention time of 715 s. To `O=C(NCc1ccc(-c2nc(C3CC3)no2)s1)c1ccc(F)cc1F` belongs 956 s; to `O=C(NC1CCS(=O)(=O)C1)c1ccc(N2CCCC2)nn1` (centres undefined), 520 s.

In turn, `CCNC(=O)C1CCN(C(=O)Nc2ccc(NC(=O)Nc3ccc(C)cc3C)cc2)CC1` displayed an RP-LC retention time of 729 s. Regarding `Cc1noc2nc(CCC(=O)NC(C)c3ccccc3)nc(N3CCC(C)CC3)c12` (centres undefined), the RP-LC retention time worked out at 941 s. Molecule `CCc1noc(NC(C)=O)c1-c1ccc(OC)c(S(=O)(=O)Nc2cccc(Cl)c2)c1` came in with an RP-LC retention time of 831 s.

Regarding `COC(=O)c1ccccc1NC(=O)Cn1nc2nc(N3CCCC(C)C3)ccn2c1=O` (centres undefined), the RP-LC retention time turned out to be 863 s.

Molecule `OC(COc1ccccc1)CN1CCN(c2ccccc2)CC1` (centres undefined) returned an RP-LC retention time of 724 s.

Regarding `CCOc1ccc(CC(=O)N2CCCN(c3cc(-c4ccc(Br)cc4)[nH]n3)CC2)cc1OCC`, the RP-LC retention time was 842 s. `Cc1ccc(CNC(=O)c2cc3c(s2)CCN(C(=O)c2ccc(F)cc2)C3)o1` came in with an RP-LC retention time of 847 s. To `O=C(Cc1ccc(Cl)cc1)N1CCN(c2cc(-c3cccnc3)[nH]n2)CC1` belongs 636 s. On to `Cn1c(=O)n([C@H]2CCN(C(=O)Nc3ccc4c(c3)OCCO4)C2)c2ncccc21`, for which the RP-LC retention time worked out at 686 s. `CCCC(=O)Nc1ccc(-n2cnc(C(=O)N3CCN(c4ccccc4F)CC3)c2)nc1` had an RP-LC retention time of 788 s. To `O=C(NCCc1ccccc1)c1c(O)c2sccc2n(Cc2ccccc2)c1=O` belongs 1270 s; to `COc1ccccc1NC(=O)N1CC(c2nc(C)no2)C2(CCOCC2)C1` (centres undefined), 676 s. To `O=C(COc1cc(O)c2c(=O)c3ccccc3oc2c1)OCc1ccccc1` belongs 1220 s. In the case of `COc1ccc(C)cc1NC(=O)[C@@H]1[C@H](c2cc(OC)c(OC)c(OC)c2)c2cc3c(cc2[C@H](O)[C@H]1CO)OCO3`, the RP-LC retention time was 795 s. `O=C1CSc2ccc(S(=O)(=O)N3CCC(C(=O)NC4CCCC4)CC3)cc2N1`: the RP-LC retention time is 746 s. As to `C=CCN(Cc1nc(-c2ccc(C)cc2)no1)C(=O)Nc1ccccc1OC`, the RP-LC retention time turned out to be 1130 s.

For the molecule `CCOC(=O)c1noc2ncnc(Nc3cccc(C)c3C)c12`, the RP-LC retention time turned out to be 948 s.

Take `Cc1nn(CC(=O)NCCCN2CCOCC2)c(=O)c2c(-n3cccc3)n(-c3ccc(F)cc3)nc12`: the RP-LC retention time is 665 s. The molecule `Clc1cccc(-c2cc3c(N4CCN(Cc5ccc6c(c5)OCO6)CC4)nccn3n2)c1` showed an RP-LC retention time of 820 s. With `Cn1nc(C(=O)N2CCCCC2)c2c1CCN(C(=O)CCC(=O)NC1CCCCC1)C2`, the RP-LC retention time came out at 681 s.

For `O=C(c1ccc(=O)[nH]c1)N1CC(c2nc(-c3ccccn3)no2)C1`, the RP-LC retention time stood at 666 s. Turning to `O=C(NCCN1CCOCC1)C1=C2CCCN2c2ccc(F)cc2S1(=O)=O`, the RP-LC retention time came out at 586 s. As for `COc1ccc(C(=O)N2CC(=O)Nc3ccc(F)cc3C2c2ccccc2)c(OC)c1` (centres undefined), the RP-LC retention time was 854 s.

Molecule `O=C(NCCn1nc(-c2cccs2)ccc1=O)c1ccc2ncsc2c1` returned an RP-LC retention time of 629 s. To `CCOC(=O)CCNC(=O)N1CCN(Cc2nc3cccnc3n2-c2ccccc2)CC1` belongs 590 s; to `O=C(CCc1ccccc1)Nc1cnn(-c2ncncc2N2CCCC2)c1`, 702 s. The molecule `CCn1cc(-c2nc(CC(=O)Nc3cc(C)ccc3OC)cs2)c2cccnc21` gave an RP-LC retention time of 1040 s. In turn, `O=C(CCCc1ccccc1)N1CCCC1c1nc(-c2ccccc2)no1` (centres undefined) gave an RP-LC retention time of 694 s. The same measure for `Cc1ccc(CNC(=O)C2(C)CCCN(C(=O)Nc3cccc(C)c3)C2)cc1` (centres undefined): 967 s; for `COc1ccc(-c2noc(CN3C(=O)COc4ccccc43)n2)c(OC)c1`: 887 s; for `CCc1ccccc1NC(=O)C1CCCN(c2ncnc3c2nc2n3CCCCC2)C1` (centres undefined): 802 s. The molecule `O=c1n(Cc2cccc(F)c2)nc2c(S(=O)(=O)N3CCCC3)cccn12` registered an RP-LC retention time of 1050 s.

Molecule `O=C(Nc1nc(-c2ccccc2)c(-c2ccccc2)s1)c1ccc(Br)s1` returned an RP-LC retention time of 1460 s.
